Patent US12281080B2, “Quinoline-based compounds and methods of inhibiting CDK8/19” (University of South Carolina, priority 2018, dated 2025)

Assays:
CSF1R = CSF1R (Homo sapiens (Human), UniProt P07333); assay: KINOMEscan scanMAX; format: binding; conditions: 2000 nM; read-out: Percent Control
PDPK1 = PDPK1 (Homo sapiens (Human), UniProt O15530); assay: KINOMEscan scanMAX; format: binding; conditions: 2000 nM; read-out: Percent Control
CSNK1G1 = CSNK1G1 (Homo sapiens (Human), UniProt Q9HCP0); assay: KINOMEscan scanMAX; format: binding; conditions: 2000 nM; read-out: Percent Control
PDGFRB = PDGFRB (Homo sapiens (Human), UniProt P09619); assay: KINOMEscan scanMAX; format: binding; conditions: 2000 nM; read-out: Percent Control
SIK2 = SIK2 (Homo sapiens (Human), UniProt Q9H0K1); assay: KINOMEscan scanMAX; format: binding; conditions: 2000 nM; read-out: Percent Control
HPK1 (MAP4K1) = HPK1 (MAP4K1) (Homo sapiens (Human), UniProt Q92918); assay: KINOMEscan scanMAX; format: binding; conditions: 2000 nM; read-out: Percent Control
[1] = molecular target: ABL1(F317I)-phosphorylated (Homo sapiens (Human), UniProt P00519, F317I); assay: KINOMEscan scanMAX; format: binding; conditions: 2000 nM; read-out: Percent Control
ADCK3 (CABC1) = ADCK3 (CABC1) (Homo sapiens (Human), UniProt Q8NI60); assay: KINOMEscan scanMAX; format: binding; conditions: 2000 nM; read-out: Percent Control
MAP4K5 = MAP4K5 (Homo sapiens (Human), UniProt Q9Y4K4); assay: KINOMEscan scanMAX; format: binding; conditions: 2000 nM; read-out: Percent Control
MAP4K2 = MAP4K2 (Homo sapiens (Human), UniProt Q12851); assay: KINOMEscan scanMAX; format: binding; conditions: 2000 nM; read-out: Percent Control
MAP3K4 = MAP3K4 (Homo sapiens (Human), UniProt Q9Y6R4); assay: KINOMEscan scanMAX; format: binding; conditions: 2000 nM; read-out: Percent Control
PRKR (EIF2AK2) = PRKR (EIF2AK2) (Homo sapiens (Human), UniProt P19525); assay: KINOMEscan scanMAX; format: binding; conditions: 2000 nM; read-out: Percent Control
MAPKAPK5 = MAPKAPK5 (Homo sapiens (Human), UniProt Q8IW41); assay: KINOMEscan scanMAX; format: binding; conditions: 2000 nM; read-out: Percent Control
PIK3CA(H1047Y) = PIK3CA(H1047Y) (Homo sapiens (Human), UniProt P42336, H1047Y); assay: KINOMEscan scanMAX; format: binding; conditions: 2000 nM; read-out: Percent Control
MEK6 (MAP2K6) = MEK6 (MAP2K6) (Homo sapiens (Human), UniProt P52564); assay: KINOMEscan scanMAX; format: binding; conditions: 2000 nM; read-out: Percent Control
[2] = Mouse pharmacokinetics, oral, serum; format: in vivo, mice
Protocol: To measure pharmacokinetics (PK), Senexin C dissolved in 5% Dextrose was administered orally (p.o.) to female FVB mice at 30 mg/kg. Blood samples were collected at different time points (5 mice per time point) and Senexin C concentration in the serum was measured by LC/MS/MS.

PIK3CA(Q546K) = PIK3CA(Q546K) (Homo sapiens (Human), UniProt P42336, Q546K); assay: KINOMEscan scanMAX; format: binding; conditions: 2000 nM; read-out: Percent Control
MLK3 (MAP3K11) = MLK3 (MAP3K11) (Homo sapiens (Human), UniProt Q16584); assay: KINOMEscan scanMAX; format: binding; conditions: 2000 nM; read-out: Percent Control
VEGFR2 (KDR) = VEGFR2 (KDR) (Homo sapiens (Human), UniProt P35968); assay: KINOMEscan scanMAX; format: binding; conditions: 2000 nM; read-out: Percent Control
BUB1 = BUB1 (Homo sapiens (Human), UniProt O43683); assay: KINOMEscan scanMAX; format: binding; conditions: 2000 nM; read-out: Percent Control
PCTK1 (CDK16) = PCTK1 (CDK16) (Homo sapiens (Human), UniProt Q00536); assay: KINOMEscan scanMAX; format: binding; conditions: 2000 nM; read-out: Percent Control
TRKB (NTRK2) = TRKB (NTRK2) (Homo sapiens (Human), UniProt Q16620); assay: KINOMEscan scanMAX; format: binding; conditions: 2000 nM; read-out: Percent Control
SgK110 = SgK110 (Homo sapiens (Human), UniProt P0C264); assay: KINOMEscan scanMAX; format: binding; conditions: 2000 nM; read-out: Percent Control
MV4-11 cells = assay: MV4-11-Luc proliferation assay (BLI); format: cell-based; conditions: Homo sapiens, MV4-11, 168 h; 7 days
Protocol: The anti-leukemic activity was evaluated with a MV4-11 assay. The population of MV4-11 cells, which depend on CDK8/19 for their proliferation, was made to express Luciferase and ZsGreen by lenvtiral infection with pHIV-Luc-ZsGreen, to enable leukemia growth analysis by bioluminescence imaging (BLI). The initial Luciferase-ZsGreen transduced cell population was sorted for ZsGreen positivity with fluorescence activated cell sorting. The MV4-11 assay was performed in 96-well plates by treating the MV4-11-Luc cells with testing compounds at different concentrations for 7 days, followed by BLI to quantify the effects of test articles on cell proliferation.

CAMK1D = CAMK1D (Homo sapiens (Human), UniProt Q8IU85); assay: KINOMEscan scanMAX; format: binding; conditions: 2000 nM; read-out: Percent Control
DMPK = DMPK (Homo sapiens (Human), UniProt Q09013); assay: KINOMEscan scanMAX; format: binding; conditions: 2000 nM; read-out: Percent Control
EPHA4 = EPHA4 (Homo sapiens (Human), UniProt P54764); assay: KINOMEscan scanMAX; format: binding; conditions: 2000 nM; read-out: Percent Control
EGFR(G719S) = EGFR(G719S) (Homo sapiens (Human), UniProt P00533, G719S); assay: KINOMEscan scanMAX; format: binding; conditions: 2000 nM; read-out: Percent Control
CDK9 = CDK9 (Homo sapiens (Human), UniProt P50750); assay: KINOMEscan scanMAX; format: binding; conditions: 2000 nM; read-out: Percent Control
AAK1 = AAK1 (Homo sapiens (Human), UniProt Q2M2I8); assay: KINOMEscan scanMAX; format: binding; conditions: 2000 nM; read-out: Percent Control
MELK = MELK (Homo sapiens (Human), UniProt Q14680); assay: KINOMEscan scanMAX; format: binding; conditions: 2000 nM; read-out: Percent Control
[3] = Serum and tumor PK in mice bearing 22rv1 xenograft tumors; format: in vivo; conditions: i.p. 20 mg/kg, male NcrNU mice
Protocol: To evaluate the PK of Senexin C in tumor tissues, Senexin C dissolved in 5% Dextrose was administered i.p. to male NcrNU mice bearing 22rv1 xenograft tumors (300˜500 mm^3) at 20 mg/kg. Both blood and tumor samples were collected at three different time points (3 mice per time point) after administration and Senexin C concentration in the serum and tumor tissue was measured by LC/MS/MS.

CAMK4 = CAMK4 (Homo sapiens (Human), UniProt Q16566); assay: KINOMEscan scanMAX; format: binding; conditions: 2000 nM; read-out: Percent Control
Sequence of CAMK4 (Q16566 whole entry): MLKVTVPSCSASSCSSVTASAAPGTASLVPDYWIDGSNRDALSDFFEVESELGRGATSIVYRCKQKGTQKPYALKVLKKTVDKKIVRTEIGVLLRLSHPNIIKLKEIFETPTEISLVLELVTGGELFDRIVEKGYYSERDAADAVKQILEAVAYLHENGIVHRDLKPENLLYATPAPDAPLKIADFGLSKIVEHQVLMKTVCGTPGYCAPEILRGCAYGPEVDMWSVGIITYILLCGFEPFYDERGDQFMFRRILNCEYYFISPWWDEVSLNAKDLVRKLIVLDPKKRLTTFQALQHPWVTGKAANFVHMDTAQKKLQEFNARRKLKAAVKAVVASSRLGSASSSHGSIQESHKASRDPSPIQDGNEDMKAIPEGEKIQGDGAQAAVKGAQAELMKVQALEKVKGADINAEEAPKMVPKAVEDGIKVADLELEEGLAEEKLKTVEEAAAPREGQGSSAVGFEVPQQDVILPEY

Sequence of AAK1 (Q2M2I8 whole entry): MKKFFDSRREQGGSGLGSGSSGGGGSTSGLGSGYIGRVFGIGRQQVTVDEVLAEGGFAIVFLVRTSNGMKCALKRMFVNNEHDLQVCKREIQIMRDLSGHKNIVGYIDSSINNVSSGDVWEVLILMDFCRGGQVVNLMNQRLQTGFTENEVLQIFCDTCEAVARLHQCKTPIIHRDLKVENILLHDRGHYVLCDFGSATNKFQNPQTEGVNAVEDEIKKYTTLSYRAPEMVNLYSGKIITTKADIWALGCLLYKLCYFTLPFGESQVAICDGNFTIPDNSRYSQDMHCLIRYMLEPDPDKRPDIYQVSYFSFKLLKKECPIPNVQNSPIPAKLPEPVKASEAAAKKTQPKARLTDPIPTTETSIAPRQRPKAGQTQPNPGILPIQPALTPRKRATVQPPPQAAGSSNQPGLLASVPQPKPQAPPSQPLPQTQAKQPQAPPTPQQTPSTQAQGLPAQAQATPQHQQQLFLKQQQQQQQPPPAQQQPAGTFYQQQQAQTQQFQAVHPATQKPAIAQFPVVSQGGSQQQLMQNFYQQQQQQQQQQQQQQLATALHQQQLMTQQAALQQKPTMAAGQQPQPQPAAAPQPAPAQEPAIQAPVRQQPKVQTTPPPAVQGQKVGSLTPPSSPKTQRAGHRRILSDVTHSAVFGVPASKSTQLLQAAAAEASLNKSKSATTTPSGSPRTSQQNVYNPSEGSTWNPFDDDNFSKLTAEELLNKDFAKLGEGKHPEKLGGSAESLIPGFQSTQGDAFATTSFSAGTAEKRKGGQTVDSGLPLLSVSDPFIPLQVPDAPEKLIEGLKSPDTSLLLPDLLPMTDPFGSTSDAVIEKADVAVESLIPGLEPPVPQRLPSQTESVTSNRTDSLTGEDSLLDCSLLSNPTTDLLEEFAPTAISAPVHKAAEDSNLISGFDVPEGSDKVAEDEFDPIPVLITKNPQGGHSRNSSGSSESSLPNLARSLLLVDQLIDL
Sequence of MAP4K2 (Q12851 whole entry): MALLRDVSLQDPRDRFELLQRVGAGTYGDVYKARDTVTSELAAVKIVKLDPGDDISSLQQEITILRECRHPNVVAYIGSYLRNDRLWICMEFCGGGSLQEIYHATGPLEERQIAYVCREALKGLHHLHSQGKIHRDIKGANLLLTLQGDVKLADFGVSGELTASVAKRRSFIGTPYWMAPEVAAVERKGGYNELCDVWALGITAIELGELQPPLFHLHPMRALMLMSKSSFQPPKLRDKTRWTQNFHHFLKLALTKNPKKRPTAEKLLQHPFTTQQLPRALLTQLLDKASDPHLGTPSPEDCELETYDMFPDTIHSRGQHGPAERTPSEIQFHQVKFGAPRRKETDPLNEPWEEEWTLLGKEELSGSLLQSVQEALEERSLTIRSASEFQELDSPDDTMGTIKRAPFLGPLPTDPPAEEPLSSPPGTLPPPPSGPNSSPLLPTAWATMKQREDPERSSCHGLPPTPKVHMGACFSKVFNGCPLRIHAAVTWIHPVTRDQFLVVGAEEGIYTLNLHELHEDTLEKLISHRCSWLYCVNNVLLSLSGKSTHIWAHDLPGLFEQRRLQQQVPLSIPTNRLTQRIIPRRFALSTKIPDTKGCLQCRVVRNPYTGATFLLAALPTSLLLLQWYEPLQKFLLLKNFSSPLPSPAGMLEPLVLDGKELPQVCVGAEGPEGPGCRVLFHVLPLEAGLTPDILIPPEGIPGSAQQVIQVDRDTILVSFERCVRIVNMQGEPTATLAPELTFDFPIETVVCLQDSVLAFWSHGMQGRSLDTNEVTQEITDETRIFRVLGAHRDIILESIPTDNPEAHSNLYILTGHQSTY
Sequence of CSNK1G1 (Q9HCP0 whole entry): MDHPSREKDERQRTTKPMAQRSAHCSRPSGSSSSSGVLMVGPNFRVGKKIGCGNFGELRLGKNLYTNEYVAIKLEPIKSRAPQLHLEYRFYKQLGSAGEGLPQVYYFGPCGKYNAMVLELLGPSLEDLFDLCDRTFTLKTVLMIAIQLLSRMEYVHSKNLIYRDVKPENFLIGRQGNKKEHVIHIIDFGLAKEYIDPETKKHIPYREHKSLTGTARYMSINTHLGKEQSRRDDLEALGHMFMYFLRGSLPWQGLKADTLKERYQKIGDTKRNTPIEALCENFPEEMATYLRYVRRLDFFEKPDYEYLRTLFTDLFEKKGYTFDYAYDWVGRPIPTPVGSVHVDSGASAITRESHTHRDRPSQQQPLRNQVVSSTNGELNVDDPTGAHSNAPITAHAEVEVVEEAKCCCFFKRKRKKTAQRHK
Sequence of PDPK1 (O15530 whole entry): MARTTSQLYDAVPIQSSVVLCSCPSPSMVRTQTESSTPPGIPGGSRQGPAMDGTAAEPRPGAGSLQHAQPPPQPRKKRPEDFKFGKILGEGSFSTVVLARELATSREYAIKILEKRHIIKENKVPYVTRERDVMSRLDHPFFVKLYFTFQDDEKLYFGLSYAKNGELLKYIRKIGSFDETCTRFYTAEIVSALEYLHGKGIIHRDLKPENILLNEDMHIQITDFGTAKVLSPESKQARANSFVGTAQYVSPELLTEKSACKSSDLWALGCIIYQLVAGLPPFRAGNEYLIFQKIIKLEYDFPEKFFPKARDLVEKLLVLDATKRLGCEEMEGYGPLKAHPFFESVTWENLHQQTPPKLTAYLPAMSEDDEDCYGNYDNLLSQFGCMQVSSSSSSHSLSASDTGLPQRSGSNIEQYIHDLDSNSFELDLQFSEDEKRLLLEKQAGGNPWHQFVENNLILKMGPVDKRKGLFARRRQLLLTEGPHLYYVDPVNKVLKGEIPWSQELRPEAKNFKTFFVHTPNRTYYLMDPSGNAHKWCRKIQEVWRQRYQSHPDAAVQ
Sequence of SIK2 (Q9H0K1 whole entry): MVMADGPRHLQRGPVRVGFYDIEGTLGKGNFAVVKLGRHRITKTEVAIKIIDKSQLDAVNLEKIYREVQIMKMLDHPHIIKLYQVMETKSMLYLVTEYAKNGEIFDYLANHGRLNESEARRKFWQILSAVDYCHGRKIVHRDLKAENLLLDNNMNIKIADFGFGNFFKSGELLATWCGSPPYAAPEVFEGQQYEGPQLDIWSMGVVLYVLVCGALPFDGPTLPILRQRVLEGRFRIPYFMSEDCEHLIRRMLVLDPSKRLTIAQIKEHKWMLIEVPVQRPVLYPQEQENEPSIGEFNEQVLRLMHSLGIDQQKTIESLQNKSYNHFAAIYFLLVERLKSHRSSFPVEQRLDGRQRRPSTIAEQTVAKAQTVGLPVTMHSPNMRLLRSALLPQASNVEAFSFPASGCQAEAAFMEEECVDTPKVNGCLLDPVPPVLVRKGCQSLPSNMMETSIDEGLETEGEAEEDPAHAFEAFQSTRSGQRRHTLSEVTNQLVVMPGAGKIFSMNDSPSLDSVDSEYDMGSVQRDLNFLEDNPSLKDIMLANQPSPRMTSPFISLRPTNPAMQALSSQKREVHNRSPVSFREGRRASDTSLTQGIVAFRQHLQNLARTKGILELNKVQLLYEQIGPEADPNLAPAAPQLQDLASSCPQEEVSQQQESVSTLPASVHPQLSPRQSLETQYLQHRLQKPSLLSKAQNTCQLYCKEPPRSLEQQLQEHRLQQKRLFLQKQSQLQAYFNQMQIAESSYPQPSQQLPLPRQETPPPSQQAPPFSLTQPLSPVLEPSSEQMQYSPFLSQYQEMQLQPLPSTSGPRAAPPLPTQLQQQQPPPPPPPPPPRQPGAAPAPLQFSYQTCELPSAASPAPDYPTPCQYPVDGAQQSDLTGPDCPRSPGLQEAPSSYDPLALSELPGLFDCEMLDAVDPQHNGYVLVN
Sequence of CDK9 (P50750 whole entry): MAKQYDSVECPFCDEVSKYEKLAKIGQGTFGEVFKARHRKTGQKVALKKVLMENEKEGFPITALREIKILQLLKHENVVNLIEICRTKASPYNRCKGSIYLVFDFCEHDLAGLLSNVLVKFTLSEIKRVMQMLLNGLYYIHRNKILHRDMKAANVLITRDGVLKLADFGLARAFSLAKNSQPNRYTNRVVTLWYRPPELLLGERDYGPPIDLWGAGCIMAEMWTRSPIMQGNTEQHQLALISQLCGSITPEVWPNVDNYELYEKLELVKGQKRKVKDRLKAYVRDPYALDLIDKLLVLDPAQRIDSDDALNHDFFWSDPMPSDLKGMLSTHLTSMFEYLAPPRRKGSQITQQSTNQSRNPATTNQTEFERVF
Sequence of PCTK1 (CDK16) (Q00536 whole entry): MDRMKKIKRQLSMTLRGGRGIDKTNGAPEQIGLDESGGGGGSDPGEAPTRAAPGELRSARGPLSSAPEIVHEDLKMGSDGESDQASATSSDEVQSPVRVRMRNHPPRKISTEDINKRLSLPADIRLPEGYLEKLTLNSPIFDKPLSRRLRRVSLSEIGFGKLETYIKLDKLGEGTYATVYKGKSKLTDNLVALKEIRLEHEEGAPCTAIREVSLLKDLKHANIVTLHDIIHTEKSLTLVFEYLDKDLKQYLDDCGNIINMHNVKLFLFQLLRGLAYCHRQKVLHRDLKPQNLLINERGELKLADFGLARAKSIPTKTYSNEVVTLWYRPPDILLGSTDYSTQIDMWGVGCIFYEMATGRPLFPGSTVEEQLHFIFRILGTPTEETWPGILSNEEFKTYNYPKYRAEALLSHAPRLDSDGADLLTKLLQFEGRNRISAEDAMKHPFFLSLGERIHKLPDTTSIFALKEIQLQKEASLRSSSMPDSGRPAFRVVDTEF

For `CN1CCN(C(=O)c2ccc3cc(CCNc4ccnc5ccc(C#N)cc45)ccc3c2)CC1` [compound 6148, 4-((2-(6-(4-methylpiperazine-1-carbonyl)naphthalen-2-yl)ethyl)amino)quinoline-6-carbonitrile], the remaining binding at 2 µM (CSF1R) was 85%, the remaining binding at 2 µM (PDPK1) was 86% and the remaining binding at 2 µM (CSNK1G1) was 100%. It also gave a remaining binding at 2 µM (PDGFRB) of 94%, a remaining binding at 2 µM (SIK2) of 100% and a remaining binding at 2 µM (HPK1 (MAP4K1)) of 94%. The remaining binding at 2 µM [1] was 89%, the remaining binding at 2 µM (ADCK3 (CABC1)) was 100% and the remaining binding at 2 µM (MAP4K5) was 95%. It also gave a remaining binding at 2 µM (MAP4K2) of 29%, a remaining binding at 2 µM (MAP3K4) of 81% and a remaining binding at 2 µM (PRKR (EIF2AK2)) of 88%. For the same molecule, the remaining binding at 2 µM (MAPKAPK5) was 62%, the remaining binding at 2 µM (PIK3CA(H1047Y)) was 91% and the remaining binding at 2 µM (MEK6 (MAP2K6)) was 80%. The “Increase of half-time, oral vs i.p.” value ([2]; female, FVB, mouse, in vivo) was 4-5 times, the half-time ([2]; p.o. 30 mg/kg, female FVB mice) was 3.8 h and the remaining binding at 2 µM (PIK3CA(Q546K)) was 70%. The remaining binding at 2 µM (MLK3 (MAP3K11)) was 99%, the remaining binding at 2 µM (VEGFR2 (KDR)) was 82% and the remaining binding at 2 µM (BUB1) was 68%. It also gave a remaining binding at 2 µM (PCTK1 (CDK16)) of 68%, a remaining binding at 2 µM (TRKB (NTRK2)) of 57% and a remaining binding at 2 µM (SgK110) of 91%. The IC50 (MV4-11 cells) was 117 nM, the remaining binding at 2 µM (CAMK1D) was 80% and the remaining binding at 2 µM (DMPK) was 98%. It also gave a remaining binding at 2 µM (EPHA4) of 93%, a remaining binding at 2 µM (EGFR(G719S)) of 100% and a remaining binding at 2 µM (CDK9) of 97%. The remaining binding at 2 µM (AAK1) was 84%, the remaining binding at 2 µM (MELK) was 97% and the “Clearance from tumor tissue compared with blood” value [3] was “much slower clearance rate”. For the same molecule, the Kp ([3]; mouse, tumor tissue (relative to serum), ip, read-out: Amount in tumor tissue relative to blood) was 5 to 10 and the remaining binding at 2 µM (CAMK4) was 95%.
